PubChem BioAssay (NCI)
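Test compounds were applied to cells in 96-well plates for 48 hours at 5 doses. Definition used: TGI = concentration required for complete inhibition of growth.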 Where a SMILES comes first, the peptide text is derived from it. [ ]: non-standard residue; d: D form. The star is where a group is joined. ξ: configuration not given here. NMeF = CN[CH](Cc1ccccc1)C(=O)O; ξNMe2Val = CC(C)C(C(=O)*)N(C)C; NMeV = CN[CH](C(=O)O)C(C)C; ξNMeV = CNC(C(=O)O)C(C)C; Boc = CC(C)(C)OC(=O)*; OBn = c1ccc(CO*)cc1; OtBu = CC(C)(C)O*

Legend:
Experiment in all cases: inhibition of tumour cell growth, NCI panel, 48 h
[1] = test system: 786-0 renal
[2] = test system: COLO 205 colon
[3] = test system: HCT-116 colon
[4] = test system: HL-60(TB) leukemia
[5] = test system: NCI-H226 lung
[6] = test system: SF-295 CNS
[7] = test system: SK-MEL-28 melanoma
[8] = test system: SN12C renal
[9] = test system: HCC-2998 colon
[10] = test system: MDA-MB-435

SMILES | TGI [1] | TGI [2] | TGI [3] | TGI [4] | TGI [5] | TGI [6] | TGI [7] | TGI [8] | TGI [9] | TGI [10]
CC(C)C(C(=O)N(C)[C@H](C(=O)N1CCC[C@H]1C(=O)N(C)[C@@H](Cc1ccccc1)C(=O)OCc1ccccc1)C(C)C)N(C)C(=O)[C@@H](NC(=O)OC(C)(C)C)C(C)C (stereo not given in full) (Boc-V[ξNMeV][NMeV]P[NMeF]-OBn) | > 71.3 µM | 35.2 µM | > 31.6 µM | 8.25 µM | > 100 µM | > 31.6 µM | > 31.6 µM | > 100 µM |  | 
O=c1[nH]c(=O)n(C2CC(O)C(CO)O2)cc1Br (stereo not given) | > 100 µM | > 100 µM | > 100 µM | > 100 µM | > 100 µM | > 100 µM | > 100 µM | > 100 µM | > 100 µM | > 100 µM
CCOC(=O)c1cc(C)nc2c1c(=O)n(-c1ccccc1)c(=O)n2CCCCN1CCN(c2ncccn2)CC1 | > 100 µM | > 100 µM | > 100 µM | 57.1 µM | > 100 µM | > 100 µM | > 100 µM | > 100 µM | > 100 µM | > 100 µM
CCSc1nc(N/N=C/c2cccs2)c2cnn(CO)c2n1 | 6.34 µM | 29.7 µM | 16.6 µM | 42.1 µM | 9.09 µM | 29.8 µM | 29.3 µM | 30.6 µM |  | 18.9 µM
O=C(NC1C/C(=N/O)c2c(Br)sc(Br)c21)C(F)(F)F (stereo not given) | 40.4 µM | > 100 µM | 30.9 µM | > 100 µM | 97.7 µM | > 100 µM |  | 56.1 µM | > 100 µM | > 100 µM
O=C1Nc2ccc(Br)cc2/C1=N/N1C(=O)C(=O)N(C2CCCCC2)C1=S | 18.4 µM | 10.4 µM | 10.8 µM | 7.23 µM | 23.5 µM | 15.4 µM | 19 µM | 16 µM | 13.5 µM | 8.16 µM
O=C1Nc2ccc(Cl)c(I)c2C1=O | 36.8 µM | 35.1 µM | 28.8 µM | 41.3 µM | 20 µM | 32.3 µM | 31.7 µM | 30.9 µM | 27.7 µM | 
CC(=O)OCC1OC(N=[N+]=[N-])C(OC(C)=O)C(OC(C)=O)C1OC1OC(COC(C)=O)C(OC(C)=O)C(OC(C)=O)C1OC(C)=O (stereo not given) | > 100 µM | > 100 µM |  | > 100 µM |  | > 100 µM | > 100 µM | > 100 µM | > 100 µM | 
Cc1[nH]c2nccn2c(=O)c1CCO | > 10 µM | > 10 µM | > 10 µM | > 10 µM | > 10 µM | > 10 µM | > 10 µM | > 10 µM |  | > 10 µM
CN1C(=O)C23CCCC2CC1(c1ccccc1)S3 (stereo not given) | > 100 µM | > 100 µM | > 100 µM | > 100 µM | > 100 µM | > 100 µM | > 100 µM | > 100 µM |  | > 100 µM
O=C1c2cccnc2-c2nccc3c2c1nc1ccccc13 | 2.21 µM | 4.77 µM | 0.18 µM |  | 0.738 µM | 0.194 µM | 1.47 µM | 1.03 µM |  | 0.444 µM
CSC(C1c2ccccc2N(C)c2[nH]c(=O)n(C)c(=O)c21)S(=O)(=O)c1ccc(C)cc1 (stereo not given) | > 100 µM | > 100 µM | > 100 µM | > 100 µM | > 100 µM | > 100 µM | > 100 µM | > 100 µM | > 100 µM | 
Fc1ccc(C(OCCN2CCC3CCC(C2)N3C/C=C/c2cccs2)c2ccc(F)cc2)cc1 (stereo not given) | 20.8 µM | 12.2 µM | 16.3 µM |  | 22.1 µM | 22.4 µM | 19.1 µM | 18 µM | 12.9 µM | 20.5 µM
Brc1ccc(-c2cc3c(cc2C2SCCS2)OCO3)cc1 | > 100 µM | > 100 µM | > 100 µM | > 100 µM | 40.3 µM | > 100 µM | > 100 µM | > 100 µM | > 100 µM | 
COc1cccc(OC)c1NC(=O)C(=O)Nn1c(NNC(=O)c2ccncc2)nc2ccccc2c1=O | > 100 µM |  | > 100 µM | > 100 µM | > 100 µM | > 100 µM | > 100 µM | > 100 µM | > 100 µM | > 100 µM
CSc1ncc2c(n1)-c1ccccc1OC2 | > 100 µM | > 100 µM | > 100 µM | > 100 µM | > 100 µM | > 100 µM |  | > 100 µM |  | > 100 µM
COc1ccc(NC(=O)C(=O)Cc2ccc([N+](=O)[O-])c([N+](=O)[O-])c2CC(=O)C(=O)Nc2ccc(OC)cc2OC)c(OC)c1 | > 100 µM | > 100 µM | > 100 µM | > 100 µM | > 100 µM | > 100 µM | > 100 µM | > 100 µM | > 100 µM | 
N#COc1ccc(Oc2ccc(OC#N)cc2)cc1 | > 100 µM | 54 µM | > 100 µM | > 100 µM | > 100 µM | > 100 µM | > 100 µM | > 100 µM | > 100 µM | 
CC(C)C(C(=O)N(C)C(Cc1ccccc1)C(=O)N(C)C(C(=O)N(C)C(C(=O)N1CCCC1C(=O)OC(C)(C)C)C(C)C)C(C)C)N(C)C (stereo not given) (ξNMe2Val-[NMeF][NMeV][NMeV]P-OtBu; configuration not given here) | > 100 µM | > 100 µM | > 100 µM | 94.7 µM | > 100 µM | > 100 µM |  | > 100 µM | 53.3 µM | 
CC[C@]12C=CCN3CC[C@@]4(c5cc(Br)c(OC)cc5N(C)[C@H]4[C@@](O)(C(=O)NC(Cc4c[nH]c5ccccc45)C(=O)OC)[C@@H]1O)[C@@H]32 (stereo not given in full) | > 100 µM | 21 µM | > 100 µM | 91.3 µM | > 100 µM | > 100 µM | > 100 µM | > 100 µM |  | > 100 µM
CC12CCc3ccccc3C1=NNC(=O)C2 (stereo not given) | > 100 µM | > 100 µM | > 100 µM | > 100 µM | > 100 µM | > 100 µM | > 100 µM | > 100 µM | > 100 µM | 
COc1cccc(CCNc2c(C#N)c3n(c4ccccc4[n+]3C)c3ncccc23)c1 | 3.35 µM | 10.5 µM | 5.3 µM |  | 45.9 µM | 3.67 µM | 44.1 µM | 32.7 µM | 3.46 µM | 45.6 µM
